Data: patent US20260167656A1, “PHOSPHORAMIDATE COMPOUNDS AND USES THEREOF” (ALLORION THERAPEUTICS INC, priority 2022, published 2026)

Columns and labels:
[1] = test system: non-small cell lung cancer cell line H460; test: In vitro human cancer cell line cytotoxicity (proliferation) assay in H460, CellTiter-Glo, 72 hours; type: cell-based; details: DMSO condition (no AKR1C3 inhibitor), read-out: CTG H460: Avg IC50 (nM) [Assay Condition: DMSO]
Method in brief: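 H460 cells were seeded at 3×10^3 per well and grown 24 h at 37 °C, 5% CO2 before compound addition from 10 mM DMSO stocks. After 72 h further incubation, viability was measured by CellTiter-Glo, and IC50 values in nM were derived from the proliferation data.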

[2] = test system: non-small cell lung cancer cell line H460; test: H460 proliferation assay in the presence of 3 uM ASP9521 (AKR1C3 specific inhibitor); type: cell-based, human; details: H460 cells, CellTiter-Glo, 72 hours, in the presence of 3 uM ASP9521 added 4 hours prior to compounds; read-out: CTG H460: Avg IC50 (nM) [Assay Condition: ASP9521]
Method in brief: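 H460 cells pre-incubated 24 h, then exposed to compounds for 72 h at 37 °C, 5% CO2. Viability read by CellTiter-Glo. ASP9521 (3 uM, AKR1C3 inhibitor) added 4 h before compounds.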

[3] = Homo sapiens, NCI-H460, 72 h, H460 cells

Structure (SMILES) | IC50 [1, 3] [nM] | IC50 [2] [nM] | IC50 ([1]; H460 cells) [nM] | IC50 ([1]; Homo sapiens, NCI-H460, H460 cells) [nM]
CC(OP(=O)(N1CC1)N1CC1)c1ccc([N+](=O)[O-])c(Cn2ccc(=O)cc2)c1 (centres unmarked) [Example 4] | ≥ 100 | > 10000 | – | –
CC(OP(=O)(N1CC1)N1CC1)c1ccc([N+](=O)[O-])c(COc2ccncc2)c1 (centres unmarked) [Example 5] | ≥ 100 | > 10000 | – | –
CC(OP(=O)(N1CC1)N1CC1)c1ccc([N+](=O)[O-])c(Cn2cc(C(=O)N(C)C)ccc2=O)c1 (centres unmarked) [Example 6] | ≥ 100 | > 10000 | – | –
CC(OP(=O)(N1CC1)N1CC1)c1ccc([N+](=O)[O-])c(COc2ccc(C(=O)N(C)C)cn2)c1 (centres unmarked) [Example 7] | 10 to 50 | 3950 | – | –
CC(OP(=O)(N1CC1)N1CC1)c1cc(Oc2ccc(C(=O)N(C)C)cc2)c([N+](=O)[O-])cc1F (centres unmarked) [Example 8] | < 10 | 1790 | – | –
CC(OP(=O)(N1CC1)N1CC1)c1cc(Oc2ccc(C(=O)N(C)C)cc2)c([N+](=O)[O-])cc1Cl (centres unmarked) [Example 9] | < 10 | 1720 | – | –
CCC1CN1P(=O)(OCc1ccc([N+](=O)[O-])c(Oc2cccc(C(=O)N(C)C)c2)c1)N1CC1CC (centres unmarked) [Example 10] | < 10 | 271 | – | –
CC(C)C1CN1P(=O)(OCc1ccc([N+](=O)[O-])c(Oc2cccc(C(=O)N(C)C)c2)c1)N1CC1C(C)C (centres unmarked) [Example 11] | ≥ 100 | 2050 | – | –
C[C@H]1CN1P(=O)(OCc1c(F)c(F)c(OCc2ccc([N+](=O)[O-])c(Oc3cccc(C(=O)N(C)C)c3)c2)c(F)c1F)N1C[C@@H]1C (stereo partly drawn) [Example 12, 4-((3-(3-(dimethylcarbamoyl)phenoxy)-4-nitrobenzyl)oxy)-2,3,5,6-tetrafluorobenzyl bis((S)-2-methylaziridin-1-yl)phosphinate] | < 10 | 89 | – | –
C[C@@H]1CN1P(=O)(OCc1c(F)c(F)c(OCc2ccc([N+](=O)[O-])c(Oc3cccc(C(=O)N(C)C)c3)c2)c(F)c1F)N1C[C@H]1C (some centres unmarked) [Example 13] | < 10 | 195 | – | –
C[C@H]1CN1P(=O)(OCc1c(F)c(F)c(OCc2ccc([N+](=O)[O-])c(Oc3ccc(C(=O)N(C)C)cc3)c2)c(F)c1F)N1C[C@@H]1C (some centres unmarked) [Example 14] | < 10 | 553 | – | –
C[C@@H]1CN1P(=O)(COc1c(F)c(F)c(OCc2ccc([N+](=O)[O-])c(Oc3ccc(C(=O)N(C)C)cc3)c2)c(F)c1F)N1C[C@H]1C (some centres unmarked) [Example 15] | < 10 | 947 | – | –
O=[N+]([O-])c1ccc2c(c1Oc1ccccc1)CCC2OP(=O)(N1CC1)N1CC1 (centres unmarked) [Example 16, 5-nitro-4-phenoxy-2,3-dihydro-1H-inden-1-yl di(aziridin-1-yl)phosphinate] | 10 to 50 | 261 | – | –
O=[N+]([O-])c1ccc2c(c1Oc1ccc(-c3ccc(F)cc3)cc1)CCC2OP(=O)(N1CC1)N1CC1 (centres unmarked) [Example 21] | < 10 | 1420 | – | –
O=[N+]([O-])c1ccc2c(c1Oc1ccc(-c3ccc(F)cc3)cc1)CCC2OP(=O)(N1CC1)N1CC1 (centres unmarked) [Example 22] | – | 1640 | 10 to 50 | –
CN1Cc2ccc(Oc3c([N+](=O)[O-])ccc4c3CCC4OP(=O)(N3CC3)N3CC3)cc2C1=O (centres unmarked) [Example 23] | < 10 | 75.9 | – | –
CN1Cc2ccc(Oc3c([N+](=O)[O-])ccc4c3CCC4OP(=O)(N3CC3)N3CC3)cc2C1=O (centres unmarked) [Example 24] | – | 916 | < 10 | –
O=[N+]([O-])c1ccc2c(c1Oc1ccc(C(F)(F)F)nc1)CCC2OP(=O)(N1CC1)N1CC1 (centres unmarked) [Example 25] | < 10 | 92.9 | – | –
O=[N+]([O-])c1ccc2c(c1Oc1ccc(C(F)(F)F)nc1)CCC2OP(=O)(N1CC1)N1CC1 (centres unmarked) [Example 26] | – | 298 | < 10 | –
O=[N+]([O-])c1ccc2c(c1Oc1ccc(-c3ccc(F)cn3)c(F)c1)CCC2OP(=O)(N1CC1)N1CC1 (centres unmarked) [Example 29] | < 10 | 1220 | – | –
O=C(c1ccc(Oc2c([N+](=O)[O-])ccc3c2CCC3OP(=O)(N2CC2)N2CC2)cc1)N1CCOCC1 (centres unmarked) [Example 34] | 10 to 50 | 822 | – | –
O=C(c1ccc(Oc2c([N+](=O)[O-])ccc3c2CCC3OP(=O)(N2CC2)N2CC2)cc1)N1CCOCC1 (centres unmarked) [Example 35] | – | 472 | < 10 | –
CNC(=O)c1ccc(Oc2c([N+](=O)[O-])ccc3c2CCC3OP(=O)(N2CC2)N2CC2)cc1 (centres unmarked) [Example 36] | 10 to 50 | 527 | – | –
CNC(=O)c1ccc(Oc2c([N+](=O)[O-])ccc3c2CCC3OP(=O)(N2CC2)N2CC2)cc1 (centres unmarked) [Example 37] | – | 178 | < 10 | –
O=[N+]([O-])c1ccc2c(c1Oc1ccc(-c3ccc(Cl)cc3)cc1)CCC2OP(=O)(N1CC1)N1CC1 (centres unmarked) [Example 44] | – | 1940 | ≥ 100 | –
O=[N+]([O-])c1ccc2c(c1Oc1ccc(-c3ccc(Cl)cc3)cc1)CCC2OP(=O)(N1CC1)N1CC1 (centres unmarked) [Example 45] | – | 5550 | 10 to 50 | –

Structure (SMILES) | IC50 [1, 3] [nM] | IC50 [2] [nM] | IC50 ([1]; H460 cells) [nM] | IC50 ([1]; Homo sapiens, NCI-H460, H460 cells) [nM]
Cn1cccc(-c2ccc(Oc3c([N+](=O)[O-])ccc4c3CCC4OP(=O)(N3CC3)N3CC3)cc2)c1=O (centres unmarked) [Example 48] | – | 1010 | ≥ 100 | –
Cn1cccc(-c2ccc(Oc3c([N+](=O)[O-])ccc4c3CCC4OP(=O)(N3CC3)N3CC3)cc2)c1=O (centres unmarked) [Example 49] | – | 920 | < 10 | –
O=[N+]([O-])c1ccc2c(c1Oc1ccc(-c3ccccc3)nc1)CCC2OP(=O)(N1CC1)N1CC1 (centres unmarked) [Example 50] | < 10 | 335 | – | –
O=[N+]([O-])c1ccc2c(c1Oc1ccc(-c3ccccc3)nc1)CCC2OP(=O)(N1CC1)N1CC1 (centres unmarked) [Example 51] | – | 327 | < 10 | –
O=C(NC1CCC1)c1ccc(Oc2c([N+](=O)[O-])ccc3c2CCC3OP(=O)(N2CC2)N2CC2)cc1 (centres unmarked) [Example 52] | 10 to 50 | 700 | – | –
O=C(NC1CCC1)c1ccc(Oc2c([N+](=O)[O-])ccc3c2CCC3OP(=O)(N2CC2)N2CC2)cc1 (centres unmarked) [Example 53] | – | 945 | < 10 | –
O=C1c2ccc(Oc3c([N+](=O)[O-])ccc4c3CCC4OP(=O)(N3CC3)N3CC3)cc2CN1C1CC1 (centres unmarked) [Example 56] | < 10 | 447 | – | –
O=C1c2ccc(Oc3c([N+](=O)[O-])ccc4c3CCC4OP(=O)(N3CC3)N3CC3)cc2CN1C1CC1 (centres unmarked) [Example 57] | – | 219 | < 10 | –
Cn1cc(-c2ccc(Oc3c([N+](=O)[O-])ccc4c3CCC4OP(=O)(N3CC3)N3CC3)cc2)ccc1=O (centres unmarked) [Example 60] | – | 1010 | ≥ 100 | –
Cn1cc(-c2ccc(Oc3c([N+](=O)[O-])ccc4c3CCC4OP(=O)(N3CC3)N3CC3)cc2)ccc1=O (centres unmarked) [Example 61] | – | 1010 | 10 to 50 | –
O=[N+]([O-])c1ccc2c(c1Oc1ccc(-c3ccncc3)cc1)CCC2OP(=O)(N1CC1)N1CC1 (centres unmarked) [Example 62] | – | 6100 | ≥ 100 | –
O=[N+]([O-])c1ccc2c(c1Oc1ccc(-c3ccncc3)cc1)CCC2OP(=O)(N1CC1)N1CC1 (centres unmarked) [Example 63] | – | 7430 | 10 to 50 | –
O=C(c1cccc(Oc2c([N+](=O)[O-])ccc3c2CCC3OP(=O)(N2CC2)N2CC2)c1)N1CC(F)(F)C1 (centres unmarked) [Example 66] | < 10 | 736 | – | –
O=C(c1cccc(Oc2c([N+](=O)[O-])ccc3c2CCC3OP(=O)(N2CC2)N2CC2)c1)N1CC(F)(F)C1 (centres unmarked) [Example 67] | – | 541 | < 10 | –
O=C1OCCN1c1cccc(Oc2c([N+](=O)[O-])ccc3c2CCC3OP(=O)(N2CC2)N2CC2)c1 (centres unmarked) [Example 70] | – | 380 | – | < 10
O=C1OCCN1c1cccc(Oc2c([N+](=O)[O-])ccc3c2CCC3OP(=O)(N2CC2)N2CC2)c1 (centres unmarked) [Example 71] | – | 31.9 | < 10 | –
O=C(NC1CC1)c1ccc(Oc2c([N+](=O)[O-])ccc3c2CCC3OP(=O)(N2CC2)N2CC2)cc1 (centres unmarked) [Example 72] | – | 1390 | 50 to 100 | –
O=C(NC1CC1)c1ccc(Oc2c([N+](=O)[O-])ccc3c2CCC3OP(=O)(N2CC2)N2CC2)cc1 (centres unmarked) [Example 73] | – | 943 | < 10 | –
Cn1c(-c2cccc(Oc3c([N+](=O)[O-])ccc4c3CCC4OP(=O)(N3CC3)N3CC3)c2)cccc1=O (centres unmarked) [Example 74] | – | 1270 | ≥ 100 | –
Cn1c(-c2cccc(Oc3c([N+](=O)[O-])ccc4c3CCC4OP(=O)(N3CC3)N3CC3)c2)cccc1=O (centres unmarked) [Example 75] | – | 2720 | 10 to 50 | –
O=[N+]([O-])c1ccc2c(c1Oc1ccc(-c3cnn(C4CC4)c3)cc1)CCC2OP(=O)(N1CC1)N1CC1 (centres unmarked) [Example 78] | – | 1150 | ≥ 100 | –
O=[N+]([O-])c1ccc2c(c1Oc1ccc(-c3cnn(C4CC4)c3)cc1)CCC2OP(=O)(N1CC1)N1CC1 (centres unmarked) [Example 79] | – | 1610 | 10 to 50 | –
O=c1ccccn1-c1cccc(Oc2c([N+](=O)[O-])ccc3c2CCC3OP(=O)(N2CC2)N2CC2)c1 (centres unmarked) [Example 80] | < 10 | 909 | – | –
O=c1ccccn1-c1cccc(Oc2c([N+](=O)[O-])ccc3c2CCC3OP(=O)(N2CC2)N2CC2)c1 (centres unmarked) [Example 81] | – | 829 | < 10 | –
O=[N+]([O-])c1ccc2c(c1Oc1cccc(-n3cc(F)cn3)c1)CCC2OP(=O)(N1CC1)N1CC1 (centres unmarked) [Example 82] | < 10 | 181 | – | –
O=[N+]([O-])c1ccc2c(c1Oc1cccc(-n3cc(F)cn3)c1)CCC2OP(=O)(N1CC1)N1CC1 (centres unmarked) [Example 83] | – | 1170 | < 10 | –
